Counter-ions that a name gives are not always drawn.
Tests used:
Escherichia coli = experiment: Antimicrobial activity of urine collected from mice after oral dosing, against Escherichia coli; type: in vivo; conditions: for urinary antiseptic activity, EC: single oral dose 56.2 mg/kg; on urinary antiseptic activity, EC: key: +: urinary antiseptic activity and inhibition of microbial growth being observed; O: no urinary antiseptic activity and no inhibition of microbial growth are observed
Procedure: (§1) Separate groups of mice are fasted overnight, but are provided with water ad libitum prior to oral administration of a substituted amidine test compound. […] Urine is collected in sterile containers at intervals over the period from 1 to 24 hours after administration of the test compound. The collected urine is assayed for antimicrobial activity against Escherichia coli, Pseudomonas aeruginosa and a Proteus species, either Proteus vulgaris or Proteus mirabilis. Urine samples collected from the separate groups of mice administered one of 2-(4-chlorophenyl)acetamidine hydrochloride, 2-(4-bromophenyl)-acetamidinehydrochloride, 2-(4-chlorophenyl)acetamidoxime hydrochloride and 2-(4-bromophenyl)acetamidoxime hydrochloride are found to be active against all three test organisms.
(§2) The procedure of Example 1 is repeated, employing the substituted amidine compound 2-(4-bromophenyl)-acetamidine hydrochloride, and the known antiseptics gentamicin and nalidixic acid as test compounds. […]

Proteus vulgaris = experiment: Antimicrobial activity of urine collected from mice after oral dosing, against Proteus vulgaris (Example 2); type: in vivo; conditions: single oral dose 56.2 mg/kg; further: key: +: urinary antiseptic activity and inhibition of microbial growth being observed; O: no urinary antiseptic activity and no inhibition of microbial growth are observed
Procedure: Separate groups of mice are fasted overnight, but are provided with water ad libitum prior to oral administration of a substituted amidine test compound. The test compounds are administered orally at a dosage rate of 50 milligrams of test compound per kilogram of animal body weight in an aqueous carrier. Urine is collected in sterile containers at intervals over the period from 1 to 24 hours after administration of the test compound. The collected urine is assayed for antimicrobial activity against Escherichia coli, Pseudomonas aeruginosa and a Proteus species, either Proteus vulgaris or Proteus mirabilis. Urine samples collected from the separate groups of mice administered one of 2-(4-chlorophenyl)acetamidine hydrochloride, 2-(4-bromophenyl)-acetamidinehydrochloride, 2-(4-chlorophenyl)acetamidoxime hydrochloride and 2-(4-bromophenyl)acetamidoxime hydrochloride are found to be active against all three test organisms.
The procedure of Example 1 is repeated, employing the substituted amidine compound 2-(4-bromophenyl)-acetamidine hydrochloride, and the known antiseptics gentamicin and nalidixic acid as test compounds. Each test compound is administered in a single oral dose of 56.2 milligrams per kilogram; and separate urine samples are separately collected and assayed at intervals of 1, 4 and 24 hours after administration.

Proteus mirabilis [1] = experiment: Proteus mirabilis urinary tract infection in Holtzman rats (Example 5); type: in vivo; conditions: PO
Source text: (§3) Several groups of Wistar rats are surgically prepared and given a urinary tract infection by injection into the lumen of the bladder of 0.1 milliliter of a brain-heart infusion broth culture of Proteus mirabilis, in a procedure similar to that of Miraglia, Transact. N.Y. Acad. Sc. 32, 337 (1970). One group is similarly prepared surgically, but is not infected with the test organism, providing an operated, non-infected control group. Three hours after the surgical operations are complete, the animals in three of the groups (the test groups) are orally administered 100 milligrams per kilogram of nalidixic acid, or 2-(4-bromophenyl)acetamidine hydrochloride at a dosage rate of 50 or 100 milligrams per kilogram. A fourth group is not administered any test compound to serve as an infected control group.
(§4) The animals in each group are weighed daily and the test compounds are administered to the test groups daily at the same dosage rate for a total of 14 days. At the end of the 14 day test period, the animals are sacrificed. Swabs of the kidney pelvis and samples of bladder urine are obtained and examined by bacteriological culture techniques, and pathological examinations are carried out.
The operations of Example 4 are repeated using six Holtzman rats per group and using nitrofurantoin instead of nalidixic acid.

Pseudomonas aeruginosa = experiment: Antimicrobial activity of urine collected from mice after oral dosing, against Pseudomonas aeruginosa; type: in vivo; conditions: for antimicrobial activity of urine against Pseudomonas aeruginosa: oral, 50 mg/kg, urine collected 1 to 24 hours; for urinary antiseptic activity, PA: single oral dose 56.2 mg/kg; for antimicrobial activity of urine against Pseudomonas: 60 mg/kg, similar operations; on urinary antiseptic activity, PA: key: +: urinary antiseptic activity and inhibition of microbial growth being observed; O: no urinary antiseptic activity and no inhibition of microbial growth are observed
Procedure: as §1, §2

[2] = system: Proteus species, either Proteus vulgaris or Proteus mirabilis; experiment: Antimicrobial activity of urine collected from mice after oral dosing, against a Proteus species (Example 1); type: in vivo, Proteus vulgaris or Proteus mirabilis (urine from mice); conditions: for antimicrobial activity of urine against Proteus species: oral, 50 mg/kg, urine collected 1 to 24 hours; for antimicrobial activity of urine against Proteus: 60 mg/kg, similar operations
Procedure: as §1

[3] = Acute oral lethality (LD50) in mice; conditions: mouse, in vivo, mice, per os, 24 hours, read-out: LD50 (dosage lethal to 50 percent of the mice)
Procedure: Separate groups of mice are separately administered an aqueous composition containing 2-(4-bromophenyl)acetamidine hydrochloride. The compound is administered per os at various dosage rates, and the animals are held for 24 hours, after which deaths are recorded, and the LD50 (dosage lethal to 50 percent of the mice) is determined.

[4] = Standard pharmacological evaluation procedures in mice; type: in vivo; conditions: 60 mg/kg
Procedure: In other operations, 2-(4-bromophenyl)acetamidine hydrochloride is administered to mice at a dosage rate of 60 milligrams per kilogram in a series of standard pharmacological evaluation procedures.

Proteus mirabilis [5] = experiment: Proteus mirabilis urinary tract infection in Wistar rats, 14 days treatment (Example 4); type: in vivo; conditions: infected Wistar rats, oral
Source text: as §3, §4

Proteus mirabilis [6] = experiment: Proteus mirabilis urinary tract infection in rats, bacterial count per kidney (Example 6); type: in vivo; conditions: oral, three doses at 4, 28, 52 hours, 72 hours
Procedure: In a similar operation, a Proteus mirabilis urinary tract infection was established in rats using a similar surgical technique. In separate groups, the test compound 2-(4-bromophenyl)acetamidine p-toluene-sulfonate, or the reference compound nalidixic acid, were administered orally in three doses, 4, 28 and 52 hours after completion of the surgical technique used to establish the infection. Separate groups of rats were left untreated to serve as controls. After 72 hours, the animals were euthanized with carbon dioxide. The left kidney was removed, homogenized in 9 milliliters sterile saline solution, and fivefold dilutions of the resulting brei were made in brain-heart infusion broth. Bacterial counts in the dilutions were determined after 24 hours incubation at 37° C. The oral dose in milligrams per kilogram (mg/kg); millimoles per kilogram (mM); the number of animals in each group, and the base ten logarithm (Log10) of the bacterial count (number of organisms per kidney) are set out below.

[7] = oral, 50 mg/kg, urine collected 1 to 24 hours
[8] = 50 or 100 mg/kg per day, 14 days

gentamicin
urinary antiseptic activity, EC (Escherichia coli; urine at 1 hour): +
urinary antiseptic activity, PV (Proteus vulgaris; urine at 1 hour): +
urinary antiseptic activity, PV (Proteus vulgaris; urine at 4 hours): +

O=C1CN(/N=C/c2ccc([N+](=O)[O-])o2)C(=O)N1 [Nitrofurantoin, nitrofurantoin, reference compound]
Percent Infection (percent of surviving rats with Proteus infection of any degree) (Proteus mirabilis [1]; 100 mg/kg): 33.0%
Percent Pathology (percent total pathology signs observed over total possible observations times 100) (Proteus mirabilis [1]; 100 mg/kg): 13.6%
Percent Weight Gain (Proteus mirabilis [1]; 100 mg/kg): 16.9%
Percent Weight Gain, excluding one rat with unexplained severe weight loss (Proteus mirabilis [1]; 100 mg/kg, excluding one rat): 20.7%

Cl.N=C(N)Cc1ccc(Br)cc1 [2-(4-bromophenyl)acetamidine hydrochloride]
antimicrobial activity of urine against E. coli (Escherichia coli; [7]): active
urinary antiseptic activity, EC (Escherichia coli; urine at 1 hour): +
urinary antiseptic activity, EC (Escherichia coli; urine at 4 hours): +
urinary antiseptic activity, EC (Escherichia coli; urine at 24 hours): +
antimicrobial activity of urine against Pseudomonas aeruginosa (Pseudomonas aeruginosa): active
urinary antiseptic activity, PA (Pseudomonas aeruginosa; urine at 1 hour): +
urinary antiseptic activity, PA (Pseudomonas aeruginosa; urine at 4 hours): +
antimicrobial activity of urine against Proteus species [2]: active
urinary antiseptic activity, PV (Proteus vulgaris; urine at 1 hour): +
urinary antiseptic activity, PV (Proteus vulgaris; urine at 4 hours): +
LD50 at 24 h [3]: 562 mg/kg
analgesic activity [4]: no significant
anorectic activity [4]: no significant
anti-thrombotic activity [4]: some anti-thrombotic activity
antidepressant activity [4]: no significant
hypotensive activity [4]: no significant
sedative activity [4]: no significant
weight gain rate (Proteus mirabilis [5]; 50 mg/kg per day, 14 days): normal in all but one of the rats
weight gain rate after the tenth day (Proteus mirabilis [5]; 50 mg/kg per day, after the tenth day): normal for all the rats in this group after the tenth day
weight gain rate (Proteus mirabilis [5]; 100 mg/kg per day, 2-(4-bromophenyl)-acetamidine hydrochloride group): approximately mormal in all but two of the rats
weight gain after the sixth day (Proteus mirabilis [5]; 100 mg/kg per day, after the sixth day): normal weight gain is observed with all but one of the test animals
gross pathological changes attributable to the infection (Proteus mirabilis [5]; [8]): No gross pathological changes attributable to the infection
infecting Proteus organism in swab and urine cultures (Proteus mirabilis [5]; [8]): no evidence of the infecting Proteus organism
bacteriological culture of swabs and urine (Proteus mirabilis [5]; 50 or 100 mg/kg per day, 14 days, except slight E. coli growth in one rat): bacteriologically sterile
growth of E. coli in urine and kidney swab cultures (Proteus mirabilis [5]; 50 or 100 mg/kg per day, one of the rats, attributed to contamination during autopsy): slight growth of E. coli noted in the urine and one of the kidney swabs from one of the rats
Percent Infection (percent of surviving rats with Proteus infection of any degree) (Proteus mirabilis [1]; 50 mg/kg): 60.0%
Percent Pathology (percent total pathology signs observed over total possible observations times 100) (Proteus mirabilis [1]; 50 mg/kg): 13.6%
Percent Weight Gain (Proteus mirabilis [1]; 50 mg/kg): 16.6%
Percent Infection (percent of surviving rats with Proteus infection of any degree) (Proteus mirabilis [1]; 100 mg/kg): 20.0%
Percent Pathology (percent total pathology signs observed over total possible observations times 100) (Proteus mirabilis [1]; 100 mg/kg): 12.7%
Percent Weight Gain (Proteus mirabilis [1]; 100 mg/kg): 19.2%

Cl.N=C(N)Cc1ccc(Cl)cc1 [2-(4-chlorophenyl)acetamidine hydrochloride]
antimicrobial activity of urine against E. coli (Escherichia coli; [7]): active
antimicrobial activity of urine against Pseudomonas aeruginosa (Pseudomonas aeruginosa): active
antimicrobial activity of urine against Proteus species [2]: active

Cl.NC(Cc1ccc(Br)cc1)=NO [2-(4-bromophenyl)acetamidoxime hydrochloride]
antimicrobial activity of urine against E. coli (Escherichia coli; [7]): active
antimicrobial activity of urine against Pseudomonas aeruginosa (Pseudomonas aeruginosa): active
antimicrobial activity of urine against Proteus species [2]: active

NC(Cc1ccccc1)=NO [2-phenylacetamidioxime hydrochloride, reference compound]
antimicrobial activity of urine against E. coli (Escherichia coli; 60 mg/kg, similar operations): ineffective
antimicrobial activity of urine against Pseudomonas (Pseudomonas aeruginosa): ineffective
antimicrobial activity of urine against Proteus [2]: ineffective

Cl.NC(Cc1ccc(Cl)cc1)=NO [2-(4-chlorophenyl)acetamidoxime hydrochloride]
antimicrobial activity of urine against E. coli (Escherichia coli; [7]): active
antimicrobial activity of urine against Pseudomonas aeruginosa (Pseudomonas aeruginosa): active
antimicrobial activity of urine against Proteus species [2]: active

Cl.N=C(N)COc1ccc(Cl)cc1 [2-(4-chlorophenoxy)acetamidine hydrochloride, reference compound]
antimicrobial activity of urine against E. coli (Escherichia coli; 60 mg/kg, similar operations): ineffective
antimicrobial activity of urine against Pseudomonas (Pseudomonas aeruginosa): ineffective
antimicrobial activity of urine against Proteus [2]: ineffective

Cl.NC(Cc1ccc([N+](=O)[O-])cc1)=NO [2-(4-nitrophenyl)acetamidoxime hydrochloride, reference compound]
antimicrobial activity of urine against E. coli (Escherichia coli; 60 mg/kg, similar operations): effective against E. coli
antimicrobial activity of urine against Pseudomonas (Pseudomonas aeruginosa): not against the Pseudomonas or Proteus test organisms
antimicrobial activity of urine against Proteus [2]: not against the Pseudomonas or Proteus test organisms

NC(Cc1ccc(Cl)cc1Cl)=NO [2-(2,4-dichlorophenylacetamidoxime hydrochloride, reference compound]
antimicrobial activity of urine against E. coli (Escherichia coli; 60 mg/kg, similar operations): ineffective
antimicrobial activity of urine against Pseudomonas (Pseudomonas aeruginosa): ineffective
antimicrobial activity of urine against Proteus [2]: ineffective

CCn1cc(C(=O)O)c(=O)c2ccc(C)nc21 [Nalidixic acid, nalidixic acid, reference compound]
urinary antiseptic activity, EC (Escherichia coli; urine at 1 hour): +
urinary antiseptic activity, EC (Escherichia coli; urine at 4 hours): +
urinary antiseptic activity, PA (Pseudomonas aeruginosa; urine at 4 hours): +
urinary antiseptic activity, PV (Proteus vulgaris; urine at 1 hour): +
urinary antiseptic activity, PV (Proteus vulgaris; urine at 4 hours): +
bacteriological culture of kidney pelvis swabs and bladder urine (Proteus mirabilis [5]; 100 mg/kg per day, 14 days): bacteriologically sterile
gross pathology attributable to the infection (Proteus mirabilis [5]; 100 mg/kg per day, 14 days): No gross pathology attributable to the infection
weight gain (Proteus mirabilis [5]; 100 mg/kg per day, 14 days): gain weight normally
Mean Bacterial Count (number of organisms per kidney) (Proteus mirabilis [6]; 50 mg/kg): 3.20 Log10
Mean Bacterial Count (number of organisms per kidney) (Proteus mirabilis [6]; 100 mg/kg): 2.56 Log10
